Measurements published in patent US20060099676A1, “Mammalian genes involved in rapamycin resistance and tumorgenesis: rapr6 genes” (priority 2002, published 2006).

Tested on: N2a cells
Assay: MTT proliferation assay: rapamycin mediated cell growth inhibition of N2a cells
Format: cell-based, mouse
Conditions: FIG. 7
Description: In a preferred embodiment, an MTT proliferation assay (see, e.g., van de Loosdrechet, et al., 1994, J. Immunol. Methods 174: 311-320; Ohno et al., 1991, J. Immunol. Methods 145:199-203; Ferrari et al., 1990, J. Immunol. Methods 131: 165-172; Alley et al., 1988, Cancer Res. 48: 589-601; Carmichael et al., 1987, Cancer Res. 47:936-942; Gerlier et al., 1986, J. Immunol. Methods 65:55-63; Mosmann, 1983, J. Immunological Methods 65:55-63) is used to screen for a candidate agent in conjunction with rapamycin to inhibit the growth of rapamycin resistant cells. The cells are treated with chosen concentrations of the candidate agent and rapamycin for 4 to 72 hours. The cells are then incubated with a suitable amount of 3-(4,5-dimethylthiazol-2-yl)-2,5-diphenyitetrazoiium bromide (MTT) for 1-8 hours such that viable cells convert MTT into an intracellular deposit of insoluble formazan. After removing the excess MTT contained in the supernatant, a suitable MTT solvent, e.g., a DMSO solution, is added to dissolved the formazan. The concentration of […], which is proportional to the number of viable cells, is then measured by determining the optical density at 570 nm. A plurality of different concentrations of the candidate agent can be assayed to allow the determination of the concentrations of the candidate agent and rapamycin which causes 50% inhibition. […]

CO[C@H]1C[C@@H]2CC[C@@H](C)[C@@](O)(O2)C(=O)C(=O)N2CCCC[C@H]2C(=O)O[C@H]([C@H](C)C[C@@H]2CC[C@@H](O)[C@H](OC)C2)CC(=O)[C@H](C)/C=C(\C)[C@@H](O)[C@@H](OC)C(=O)[C@H](C)C[C@H](C)/C=C/C=C/C=C/1C [rapamycin, 9,10,12,13,14,21,22,23,24,25,26,27, 32,33,34,34a-hexadecahydro-9,27-dihydroxy-3-[2-(4-hydroxy-3-methoxycyclohexyl)-1-methylethyl]-10,21-dimethoxy-6,8,12,14,20,26-hexamethyl-23,27-epoxy-3H-pyrido[2,1-c][1,4]oxaazacyclohentricontine-1,5,11,28,29(4H,6H,31H)-pentone]
rapamycin concentration at which the growth of N2a cells is completely inhibited (N2a cell line): ≥ 1 µM
concentration at which N2a cells are sensitive to rapamycin mediated cell growth inhibition (mouse neuroblastoma N2a cells, MTT assay): 10 nM
